# Where two headings read alike, the source gives them in different places.
# What was measured:
# [1] = tested on: Candida albicans CCM 8320, ATCC 24433; experiment: Antifungal microdilution broth MIC, CA; conditions: for IC90: ATCC24433|CCM8320, 24 h
# [2] = tested on: Candida krusei CCM 8271, ATCC 6258; experiment: Antifungal microdilution broth MIC, CK; conditions: Pichia kudriavzevii; for IC90: ATCC6258|CCM8271, 24 h
# [3] = tested on: Candida parapsilosis CCM 8260, ATCC 22019; experiment: Antifungal microdilution broth MIC, CP; conditions: Lodderomyces parapsilosis
# [4] = tested on: Candida tropicalis CCM 8264, ATCC 750; experiment: Antifungal microdilution broth MIC, CT; conditions: for IC90: ATCC750|CCM8264, 24 h
# [5] = tested on: Aspergillus fumigatus ATCC 204305; experiment: Antifungal microdilution broth MIC, AF
# [6] = tested on: Lichtheimia corymbifera CCM 8077; experiment: Antifungal microdilution broth MIC, LC
# [7] = tested on: Trichophyton interdigitale CCM 8377, ATCC 9533; experiment: Antifungal microdilution broth MIC, TI; conditions: Trichophyton interdigitale
# [8] = tested on: Aspergillus flavus CCM 8363; experiment: Antifungal microdilution broth MIC, AFla
# [9] = tested on: Mycobacterium tuberculosis H37Ra; experiment: Antimycobacterial microdilution broth MIC (resazurin), Mtb H37Ra; type: cell-based; conditions: Mycobacterium tuberculosis, H37RA
# [10] = tested on: Mycolicibacterium smegmatis DSM 43465; experiment: Antimycobacterial microdilution broth MIC (resazurin), M. smegmatis; type: cell-based
# [11] = tested on: Mycolicibacterium aurum DSM 43999; experiment: Antimycobacterial microdilution broth MIC (resazurin), M. aurum; type: cell-based
# HepG2 cell line = experiment: Cytotoxicity CellTiter 96, HepG2; type: cell-based, human; conditions: 24 h incubation, ^c compound precipitated in the testing medium, ^d over the limit of tested concentrations
# Procedure: The cytotoxicity of final compounds was determined in human hepatocellular carcinoma cell line HepG2.
# Cytotoxicity determination
# Human hepatocellular liver carcinoma cell line HepG2 purchased from Health Protection Agency Culture Collections (ECACC, Salisbury, UK) was cultured in MEM (Minimum Essentials Eagle Medium, Sigma–Aldrich) supplemented with 10% fetal bovine serum (PAA Laboratories, Pasching, Austria), 1% L-glutamine solution (Sigma–Aldrich) and non-essential amino acid solution (Sigma–Aldrich) in a humidified atmosphere containing 5% CO2 at 37 °C. For subculturing, the cells were harvested after trypsin/EDTA (Sigma–Aldrich) treatment at 37 °C. To evaluate cytotoxicity, the cells treated with the tested substances were used as experimental groups whereas untreated HepG2 cells served as controls. The cells were seeded in density 10,000 cells per well in a 96 well plate. The next day the cells were treated with each of the tested substances dissolved in DMSO. The tested substances were
# in triplicates according to their solubility. Simultaneously, the controls representing 100% cell viability, 0% cell viability (the cells treated with 10% DMSO), no cell control and vehiculum controls were also
# the reagent from the kit CellTiter 96 AQueous One Solution Cell Proliferation Assay (CellTiter 96; PROMEGA, Fitchburg, USA) was added. After 2h incubation at 37 °C, absorbance of samples was recorded at 490 nm (TECAN, Infinita M200, Austria). A standard toxicological parameter IC50 was calculated by nonlinear regression from a semilogarithmic plot of incubation concentration versus percentage of absorbance relative to untre ated controls using GraphPad Prism 8 software.
# [12] = tested on: Staphylococcus aureus CCM 4223, ATCC 29213; experiment: Antibacterial microdilution broth MIC, SA; type: cell-based; conditions: Staphylococcus aureus
# [13] = tested on: Staphylococcus aureus subsp. aureus CCM 4750, ATCC 43300 (MRSA); experiment: Antibacterial microdilution broth MIC, MRSA; type: cell-based; conditions: Staphylococcus aureus
# [14] = tested on: Staphylococcus epidermidis CCM 4418, ATCC 12228; experiment: Antibacterial microdilution broth MIC, SE; type: cell-based
# [15] = tested on: Enterococcus faecalis CCM 4224, ATCC 29212; experiment: Antibacterial microdilution broth MIC, EF; type: cell-based
# [16] = tested on: Escherichia coli CCM 3954, ATCC 25922; experiment: Antibacterial microdilution broth MIC, EC; type: cell-based
# [17] = tested on: Acinetobacter baumannii DSM 30007, ATCC 19606; experiment: Antibacterial microdilution broth MIC, ACI; type: cell-based
# [18] = tested on: Pseudomonas aeruginosa CCM 3955, ATCC 27853; experiment: Antibacterial microdilution broth MIC, PA; type: cell-based
# [19] = tested on: Klebsiella pneumoniae CCM 4415, ATCC 10031; experiment: Antibacterial microdilution broth MIC, KP
# [20] = 24 h, read-out: MIC visual detection, CA
# [21] = 24 h, read-out: MIC visual detection, CK
# [22] = ATCC22019|CCM8260, 24 h, read-out: MIC visual detection, CP
# [23] = 24 h, read-out: MIC visual detection, CT
# [24] = ATCC204305, 48 h, read-out: MIC visual detection, AF
# [25] = CCM8077, 48 h, read-out: MIC visual detection, LC
# [26] = ATCC9533|CCM8377, 48 h, read-out: MIC visual detection, TI
# [27] = CCM8363, 48 h, read-out: MIC visual detection, AFla
# [28] = read-out: MIC Mtb H37Ra (μg/mL)
smiles,measurement,setting,value
"C[C@@H]1[C@H](O)[C@@H](C)/C=C/C=C/C=C/C=C/C=C/C=C/C=C/[C@H](O[C@@H]2O[C@H](C)[C@@H](O)[C@H](N)[C@@H]2O)C[C@@H]2O[C@](O)(C[C@@H](O)C[C@@H](O)[C@H](O)CC[C@@H](O)C[C@@H](O)CC(=O)O[C@H]1C)C[C@H](O)[C@H]2C(=O)O [Amphotericin B, amphotericin B, reference compound]",MIC,[1]; [20],1 µg/mL
same,IC90,"[1]; read-out: Amphotericin B - IC90 spectrophotometric detection, CA",1 µg/mL
same,MIC,[2]; [21],1 µg/mL
same,IC90,"[2]; read-out: Amphotericin B - IC90 spectrophotometric detection, CK",1 µg/mL
same,IC90,"[3]; ATCC22019|CCM8260, 24 h, read-out: Amphotericin B - IC90 spectrophotometric detection, CP",0.5 µg/mL
same,MIC,[3]; [22],0.5 µg/mL
same,MIC,[4]; [23],1 µg/mL
same,IC90,"[4]; read-out: Amphotericin B - IC90 spectrophotometric detection, CT",1 µg/mL
same,IC90,"[5]; ATCC204305, 48 h, read-out: Amphotericin B - IC90 spectrophotometric detection, AF",4 µg/mL
same,MIC,[5]; [24],4 µg/mL
same,IC90,"[6]; CCM8077, 48 h, read-out: Amphotericin B - IC90 spectrophotometric detection, LC",1 µg/mL
same,MIC,[6]; [25],1 µg/mL
same,IC90,"[7]; ATCC9533|CCM8377, 48 h, read-out: Amphotericin B - IC90 spectrophotometric detection, TI",1 µg/mL
same,MIC,[7]; [26],1 µg/mL
same,IC90,"[8]; CCM8363, 48 h, read-out: Amphotericin B - IC90 spectrophotometric detection, AFla",4 µg/mL
same,MIC,[8]; [27],4 µg/mL
"O=C(O)c1cn(C2CC2)c2cc(N3CCNCC3)c(F)cc2c1=O [CIP, ciprofloxacin, reference compound]",MIC,[9]; read-out: MIC Mtb H37Ra (μM),0.38 to 0.75 µM
same,MIC,[9]; [28],0.125 to 0.25 µg/mL
O=C(Cc1ccccc1)Nc1ccccn1 [Compound 1],MIC,[9]; read-out: MIC Mtb H37Ra (μM),147 µM
same,MIC,[9]; [28],31.2 µg/mL
same,MIC,"[10]; DSM43465, read-out: MIC M. smegmatis",62.5 µg/mL
same,MIC,"[11]; DSM43999, read-out: MIC M. aurum",250 µg/mL
same,IC50,HepG2 cell line,> 1000 µM
same,IC50,"HepG2 cell line; Homo sapiens, HepG2, 24 h",> 500 µM
same,MIC,"[12]; 24 h, read-out: MIC SA 24h",> 500 µM
same,MIC,"[12]; 48 h, read-out: MIC SA 48h",> 500 µM
same,MIC,"[13]; 24 h, read-out: MIC MRSA 24h",> 500 µM
same,MIC,"[13]; 48 h, read-out: MIC MRSA 48h",> 500 µM
same,MIC,"[14]; 24 h, read-out: MIC SE 24h",> 500 µM
same,MIC,"[14]; 48 h, read-out: MIC SE 48h",> 500 µM
same,MIC,"[15]; 24 h, read-out: MIC EF 24h",> 500 µM
same,MIC,"[15]; 48 h, read-out: MIC EF 48h",> 500 µM
same,MIC,"[16]; 24 h, read-out: MIC EC 24h",> 500 µM
same,MIC,"[16]; 48 h, read-out: MIC EC 48h",> 500 µM
same,MIC,"[17]; 24 h, read-out: MIC ACI 24h",> 500 µM
same,MIC,"[17]; 48 h, read-out: MIC ACI 48h",> 500 µM
same,MIC,"[18]; 24 h, read-out: MIC PA 24h",> 500 µM
same,MIC,"[18]; 48 h, read-out: MIC PA 48h",> 500 µM
same,MIC,"[1]; 24 h, read-out: MIC CA 24h",500 µM
same,MIC,"[1]; 48 h, read-out: MIC CA 48h",500 µM
same,MIC,"[2]; 24 h, read-out: MIC CK 24h",500 µM
same,MIC,"[2]; 48 h, read-out: MIC CK 48h",500 µM
same,MIC,"[3]; 24 h, read-out: MIC CP 24h",500 µM
same,MIC,"[3]; 48 h, read-out: MIC CP 48h",500 µM
same,MIC,"[4]; 24 h, read-out: MIC CT 24h",500 µM
same,MIC,"[4]; 48 h, read-out: MIC CT 48h",500 µM
same,MIC,"[5]; ATCC204305, 24 h, read-out: MIC AF 24h",> 500 µM
same,MIC,"[5]; ATCC204305, 48 h, read-out: MIC AF 48h",> 500 µM
same,MIC,"[6]; CCM8077, 24 h, read-out: MIC LC 24h",> 500 µM
same,MIC,"[6]; CCM8077, 48 h, read-out: MIC LC 48h",> 500 µM
same,MIC,"[7]; 72 h, read-out: MIC TI 72h",500 µM
same,MIC,"[7]; 120 h, read-out: MIC TI 120h",500 µM
same,MIC,"[8]; CCM8363, 24 h, read-out: MIC AFla 24h",> 500 µM
same,MIC,"[8]; CCM8363, 48 h, read-out: MIC AFla 48h",> 500 µM
same,MIC KP 24h,[19]; 24h,> 500 µM
same,MIC KP 48h,[19]; 48h,> 500 µM
"CNC(C)C1CCC(N)C(OC2C(N)CC(N)C(OC3OCC(C)(O)C(NC)C3O)C2O)O1 (stereo not drawn) [Gentamicin, gentamicin, reference compound]",MIC,"[12]; read-out: MIC (µg/mL) SA, Gentamicin – spectrophotometric detection, internal quality controls, 24h",0.5 µg/mL
same,MIC,"[12]; internal quality controls, 24h, 95% inhibition of growth, 530 nm, read-out: MIC (µg/mL) SA, spectrophotometric detection",1 µg/mL
same,MIC,"[13]; read-out: MIC (µg/mL) MRSA, Gentamicin – spectrophotometric detection, internal quality controls, 24h",> 8 µg/mL
same,MIC,"[13]; internal quality controls, 24h, 95% inhibition of growth, 530 nm, read-out: MIC (µg/mL) MRSA, spectrophotometric detection",> 8 µg/mL
same,MIC,"[14]; internal quality controls, 24h, 95% inhibition of growth, 530 nm, read-out: MIC (µg/mL) SE, spectrophotometric detection",0.0625 µg/mL
same,MIC,"[14]; read-out: MIC (µg/mL) SE, Gentamicin – spectrophotometric detection, internal quality controls, 24h",0.0625 µg/mL
same,MIC,"[15]; internal quality controls, 24h, 95% inhibition of growth, 530 nm, read-out: MIC (µg/mL) EF, spectrophotometric detection",> 8 µg/mL
same,MIC,"[15]; read-out: MIC (µg/mL) EF, Gentamicin – spectrophotometric detection, internal quality controls, 24h",> 8 µg/mL
same,MIC,"[16]; internal quality controls, 24h, 95% inhibition of growth, 530 nm, read-out: MIC (µg/mL) EC, spectrophotometric detection",1 µg/mL
same,MIC,"[16]; read-out: MIC (µg/mL) EC, Gentamicin – spectrophotometric detection, internal quality controls, 24h",1 µg/mL
same,MIC,"[17]; internal quality controls, 24h, 95% inhibition of growth, 530 nm, read-out: MIC (µg/mL) ACI, spectrophotometric detection",8 µg/mL
same,MIC,"[17]; read-out: MIC (µg/mL) ACI, Gentamicin – spectrophotometric detection, internal quality controls, 24h",8 µg/mL
same,MIC,"[18]; internal quality controls, 24h, 95% inhibition of growth, 530 nm, read-out: MIC (µg/mL) PA, spectrophotometric detection",0.5 µg/mL
same,MIC,"[18]; read-out: MIC (µg/mL) PA, Gentamicin – spectrophotometric detection, internal quality controls, 24h",0.5 µg/mL
"CO[C@H]1/C=C/O[C@@]2(C)Oc3c(C)c(O)c4c(O)c(c(/C=N/N5CCN(C)CC5)c(O)c4c3C2=O)NC(=O)/C(C)=C\C=C\[C@H](C)[C@H](O)[C@@H](C)[C@@H](O)[C@@H](C)[C@H](OC(C)=O)[C@@H]1C [RIF, rifampicin, reference compound]",MIC,[9]; read-out: MIC Mtb H37Ra (μM),0.0037 µM
same,MIC,[9]; [28],0.00313 µg/mL
same,MIC,"[10]; DSM43465, read-out: MIC M. smegmatis (μg/mL)",1.56 to 6.25 µg/mL
same,MIC,"[11]; DSM43999, read-out: MIC M. aurum (μg/mL)",0.39 to 0.78 µg/mL
"C[C@@H](c1ncncc1F)[C@](O)(Cn1cncn1)c1ccc(F)cc1F [Voriconazole, voriconazole, reference compound]",MIC,[1]; [20],> 16 µg/mL
same,IC90,"[1]; read-out: Voriconazole - IC90 spectrophotometric detection, CA",0.03 µg/mL
same,MIC,[2]; [21],> 16 µg/mL
same,IC90,"[2]; read-out: Voriconazole - IC90 spectrophotometric detection, CK",0.25 µg/mL
same,MIC,[3]; [22],> 16 µg/mL
same,IC90,"[3]; ATCC22019|CCM8260, 24 h, read-out: Voriconazole - IC90 spectrophotometric detection, CP",0.03 µg/mL
same,MIC,[4]; [23],> 16 µg/mL
same,IC90,"[4]; read-out: Voriconazole - IC90 spectrophotometric detection, CT",2 µg/mL
same,MIC,[5]; [24],1 µg/mL
same,IC90,"[5]; ATCC204305, 48 h, read-out: Voriconazole - IC90 spectrophotometric detection, AF",0.25 µg/mL
same,MIC,[6]; [25],> 16 µg/mL
same,IC90,"[6]; CCM8077, 48 h, read-out: Voriconazole - IC90 spectrophotometric detection, LC",> 16 µg/mL
same,MIC,[7]; [26],> 16 µg/mL
same,IC90,"[7]; ATCC9533|CCM8377, 48 h, read-out: Voriconazole - IC90 spectrophotometric detection, TI",1 µg/mL
same,MIC,[8]; [27],> 16 µg/mL
same,IC90,"[8]; CCM8363, 48 h, read-out: Voriconazole - IC90 spectrophotometric detection, AFla",2 µg/mL

# From paper PMC11748363, “Antimicrobial and Antiproliferative Properties of 2‐Phenyl‐N‐(Pyridin‐2‐yl)acetamides” (Chemical Biology & Drug Design, 2025)
